Laboratory results published in patent US10898548B2, “Modulators of protein tyrosine phosphatase and uses thereof” (LEUVAS THERAPEUTICS, priority 2015, dated 2021).

Assays:
LFA-1 = LFA-1 high affinity state detection with 327C mAb; type: cell-based, human; conditions: CTRL 100; for LFA-1 high affinity state, percentages of fold increases over the control: 40 μM P1 or P1-TKIP, 100 μM AG490, 200 μM WHI-P154, 1 hour, 50 nM fMLP 60 sec; for LFA-1 high affinity state, mean fluorescence intensity relative to the fMLP-stimulated control: monocytes, 50 nM fMLP 1 min, concentration not given; for LFA-1 high affinity state, percentages of fold-increase over control: 50 μM TAT peptides or 0.5 μM TAT-ICD, 1 hour, 50 nM fMLP 60 seconds
Procedure: The ability of P1-WD to inhibit triggering of LFA-1 to a high-affinity state was assessed using a specific reporter monoclonal antibody 327C, which detects the fully extended LFA-1 conformational epitope corresponding to heterodimer high affinity state. Briefly, freshly isolated human monocytes were suspended in standard adhesion buffer at 2×10^6/ml were stimulated under stirring at 37° C. for 1 min with 50 nM fMLP in the presence of 10 µg/ml 327C mAb. After rapid washing, the cells were stained with FITC-conjugated secondary antibody and analyzed by cytofluorimetric quantification (Table 4). Data are mean fluorescence intensity measured by flow cytometry relative to the fMLP-stimulated control (CTRL) cells.
The ability of TAT-ICD to trigger the high affinity state of LFA-1 was tested as described in Example 2, Table 4 and the results are in Table 8. Human monocytes were treated with buffer (CTRL), 50 μM TAT peptides, or 0.5 μM TAT-ICD for 1 hour at 37° C. and stimulated with 50 nM fMLP for 60 seconds. Data are the percentages of fold-increase over control; mean values of 6 experiments
Briefly, LFA-1 high affinity state detection. Human monocytes were treated with buffer (CTRL=control), 40 μM P1 or P1-TKIP peptides, 100 μM AG490 or 200 μM WHI-P154 for 1 hour at 37° C. and stimulated with 50 nM fMLP for 60 sec. LFA-1 high affinity state conformer was detected by cytofluorimetric analysis with 327C antibody. Shown are percentages of fold increases over the control; mean values of 5 experiments.

human primary monocytes [1] = test: static adhesion of fMLP-stimulated monocytes to fibrinogen; type: cell-based; set-up: fMLP-triggered static adhesion to fibrinogen: unit not given here; conditions: CTRL 100; for fMLP-induced adhesion to fibrinogen: 40 μM P1 or P1-TKIP, 100 μM AG490, 200 μM WHI-P154, 1 hour, 50 nM fMLP 60 sec; for fMLP-triggered static adhesion to fibrinogen: monocytes
Procedure: We investigated the functional effect of PTPRG activation on integrin activation and mediated adhesion by chemoattractants in human primary monocytes and PMNs in a static and flow adhesion assays. Briefly, human primary monocytes or polymorphonuclear cells were suspended at 5×10^6/ml in standard adhesion buffer. Adhesion assays were performed on 18-well glass slides coated with 1 mg/ml human fibrinogen or with 1 μg/ml human ICAM-1 in PBS; 20 μl of cell suspension were added to the coated wells and stimulated for 1 min at 37° C. with 5 μl of fMLP, 0.05 μM final concentration. After rapid washing, adherent cells were fixed in ice-cold 1.5% glutaraldehyde in PBS, and still images of adherent cells in 0.2 mm^2 fields were acquired al 20× phase contrast magnification, NA 0.40, with a charge-coupled device camera (ICD-42B; Ikegami) connected to an inverted microscope (IX50; Olympus). Image acquisition and computer-assisted enumeration of adherent cells were performed with ImageJ (National Institute of Health). […]
(§1) To evaluate whether JAK2 mediates chemoattractant-induced adhesion of human monocytes to beta-2 integrin substrates human monocytes were treated control buffer or P1 or with the three JAK inhibitors. Briefly, human monocytes were treated with buffer (CTRL=control), or 40 μM P1 or P1-TKIP peptides, 100 μM AG490 or 200 μM WHI-P154 for 1 hour at 37° C. and stimulated with 50 nM fMLP for 60 sec.; data are mean and standard deviation (SD) of 6 experiments in triplicate.

human primary monocytes [2] = test: underflow adhesion of monocytes on E-selectin/ICAM-1 (BioFlux); type: cell-based; conditions: for arrest 1 sec, flow assay / arrest 10 sec, flow assay / rolling cells, flow assay: Table 3, concentration not given; for arrest 1 sec, flow assay: CTRL 24; for rolling cells, flow assay: CTRL 50
Procedure: Flow-adhesion assays were also performed to test the ability of the P1-WD peptide to inhibit adhesion of human monocytes under flow conditions. Briefly, Human primary monocytes were suspended at 1×10^6/ml in standard adhesion. Cell behavior in underflow conditions was analyzed with the BioFlux 200 system (Fluxion Biosciences). 48-well plate microfluidics were first co-coated overnight at room temperature with 2.5 μg/ml human E-selectin and 5 μg/ml human ICAM-1 in PBS. Immediately before use, microfluidic channels were washed with PBS and then coated with 10 nM fMLP in PBS for 3 h at room temperature. After extensive washing of microfluidics with adhesion buffer, cells were fluxed at 2 dyne/cm^2 wall shear stress and the behavior of interacting cells was digitally recorded with a fast CCD videocamera (25 frames/s). Single areas of 0.2 mm^2 were recorded for at least 120 s. Interactions of 40 ms or longer were considered significant and scored. Cells that remained firmly adherent for at least 1 s were considered fully arrested. Cells arrested for at least 1 s and then detached, or for 10 s and then remained adherent, were scored separately and plotted as independent groups. Interacting cells behaviors were automatically quantified with BeQuanti.
Briefly, human monocytes were treated with buffer (CTRL), 50 μM TAT peptides, or 0.5 μM TAT-ICD for 1 hour at 37° C. Data are percentages of rolling and arrested cells for the indicated times over total interacting cells; mean values of 4 experiments.
Briefly, Human monocytes were treated with buffer (CTRL=control), 100 μM AG490, 40 μM P1 or P1-TKIP peptides or 200 μM WHI-P154 for 1 hour at 37° C. Shown are percentages of rolling and arrested cells for the indicated times over total interacting cells; mean values of 5 experiments; errors bars are SDs.

human primary monocytes [3] = test: static adhesion of fMLP-stimulated monocytes to ICAM-1; type: cell-based; conditions: CTRL 100; for fMLP-induced adhesion to ICAM-1: 40 μM P1 or P1-TKIP, 100 μM AG490, 200 μM WHI-P154, 1 hour, 50 nM fMLP 60 sec; for fMLP-triggered static adhesion to ICAM-1: monocytes
Procedure: We investigated the functional effect of PTPRG activation on integrin activation and mediated adhesion by chemoattractants in human primary monocytes and PMNs in a static and flow adhesion assays. Briefly, human primary monocytes or polymorphonuclear cells were suspended at 5×10^6/ml in standard adhesion buffer. Adhesion assays were performed on 18-well glass slides coated with 1 mg/ml human fibrinogen or with 1 μg/ml human ICAM-1 in PBS; 20 μl of cell suspension were added to the coated wells and stimulated for 1 min at 37° C. with 5 μl of fMLP, 0.05 μM final concentration. After rapid washing, adherent cells were fixed in ice-cold 1.5% glutaraldehyde in PBS, and still images of adherent cells in 0.2 mm^2 fields were acquired al 20× phase contrast magnification, NA 0.40, with a charge-coupled device camera (ICD-42B; Ikegami) connected to an inverted microscope (IX50; Olympus). Image acquisition and computer-assisted enumeration of adherent cells were performed with ImageJ (National Institute of Health).
We then investigated the functional effect of TAT-ICD on integrin activation and mediated adhesion by chemoattractants. Static adhesion assays were performed as described in Example 2. […] Data are mean number of adherent cells in 5 experiments in triplicate.
as §1
Human primary monocytes were isolated from buffy coats from healthy donors and pre-incubated for 30 minutes at room temperature with our without 0.075 micromolar PTPX. Standard adhesion assays on ICAM-1 coated glass slides. Cell suspensions were added to the coated wells for 1 minute, stimulated for 1 minute at 37° C. with […] fMLP. Non-adherent cells were washed away and adherent cells were fixed in ice-cold 1.5% glutaraldehyde in PBS and adherent cells were counted using computer assisted automatic quantification. Data are from a representative experiment and are the mean and standard deviation of 24 measurements per condition (Table 35).

[4] = 100 μM AG490, 40 μM P1 or P1-TKIP, 200 μM WHI-P154, 1 hour, CTRL 26
[5] = 100 μM AG490, 40 μM P1 or P1-TKIP, 200 μM WHI-P154, 1 hour, CTRL 34
[6] = 100 μM AG490, 40 μM P1 or P1-TKIP, 200 μM WHI-P154, 1 hour, CTRL 40
[7] = control peptide, concentration not given
[8] = 50 μM TAT peptides or 0.5 μM TAT-ICD, 1 hour at 37° C., CTRL 12
[9] = 50 μM TAT peptides or 0.5 μM TAT-ICD, 1 hour at 37° C., CTRL 22
[10] = 50 μM TAT peptides or 0.5 μM TAT-ICD, 1 hour at 37° C., CTRL 66

Compound	LFA-1 high affinity state, percentages of fold increases over the control (LFA-1) [%]	fMLP-induced adhesion to fibrinogen (human primary monocytes [1]) [%]	cells arrested 10 sec over total interacting cells, flow assay (human primary monocytes [2]; [4]) [%]	cells arrested 1 sec over total interacting cells, flow assay (human primary monocytes [2]; [5]) [%]	rolling cells over total interacting cells, flow assay (human primary monocytes [2]; [6]) [%]	fMLP-induced adhesion to ICAM-1 (human primary monocytes [3]) [%]	LFA-1 high affinity state, mean fluorescence intensity relative to the fMLP-stimulated control (LFA-1)	arrest 1 sec, flow assay (human primary monocytes [2])	arrest 10 sec, flow assay (human primary monocytes [2]; CTRL 26)	rolling cells, flow assay (human primary monocytes [2])	LFA-1 high affinity state, percentages of fold-increase over control (LFA-1) [%]	fMLP-triggered static adhesion to fibrinogen (human primary monocytes [1]; 0.5 μM)	fMLP-triggered static adhesion to fibrinogen (human primary monocytes [1]; 1 μM)	rolling cells over total interacting cells, flow assay (human primary monocytes [2]; [8]) [%]	cells arrested 1 sec over total interacting cells, flow assay (human primary monocytes [2]; [9]) [%]	cells arrested 10 sec over total interacting cells, flow assay (human primary monocytes [2]; [10]) [%]	fMLP-triggered static adhesion to ICAM-1 (human primary monocytes [3]; 0.5 μM)	fMLP-triggered static adhesion to ICAM-1 (human primary monocytes [3]; 1 μM)	further results
N#C/C(=C/c1ccc(O)c(O)c1)C(=O)NCc1ccccc1 [AG490]	66	32.8	10	20	70	23.5													
COc1cc2ncnc(Nc3ccc(O)c(Br)c3)c2cc1OC [WHI-P154]	58	18	14	20	66	6.4													
P1-WD: fusion Trojan peptide SEQ ID 3: Penetratin, glycine, PTPRG wedge domain aa 831-856; RQIKIWFQNRRMKWKKGKQFVKHIGELYSNNQHGFSEDFEEVQ (listed as Homo sapiens)							22	9	11	80									fMLP-triggered static adhesion to fibrinogen (human primary monocytes [1]; P1-WD 10 micromolar): 41; fMLP-triggered static adhesion to fibrinogen (human primary monocytes [1]; P1-WD 25 micromolar): 18; fMLP-triggered static adhesion to fibrinogen (human primary monocytes [1]; P1-WD 50 micromolar): 16; fMLP-triggered static adhesion to ICAM-1 (human primary monocytes [3]; P1-WD 10 micromolar): 78; fMLP-triggered static adhesion to ICAM-1 (human primary monocytes [3]; P1-WD 25 micromolar): 40; fMLP-triggered static adhesion to ICAM-1 (human primary monocytes [3]; P1-WD 50 micromolar): 19
P1: Penetratin delivery peptide, 16 aa RQIKIWFQNRRMKWKK (SEQ ID 4), control [reference compound]	90	110	30	26	44	101	91	32	30	38									fMLP-triggered static adhesion to fibrinogen (human primary monocytes [1]; [7]): 94; fMLP-triggered static adhesion to ICAM-1 (human primary monocytes [3]; [7]): 102
TAT (GRKKRRQRRRPPQ; listed as Homo sapiens) [reference compound]											85.3	100	98	14	25	61	100	110	
TAT-ICD: fusion recombinant protein SEQ ID 5: PTPRG intracellular domain aa 797-1445 fused to 13 aa TAT sequence											24.3	20.1	14.0	79	10	11	14	10	fMLP-triggered static adhesion to fibrinogen (human primary monocytes [1]; 0.01 μM): 45.4; fMLP-triggered static adhesion to fibrinogen (human primary monocytes [1]; 0.05 μM): 35.5; fMLP-triggered static adhesion to fibrinogen (human primary monocytes [1]; 0.10 μM): 27.9; fMLP-triggered static adhesion to ICAM-1 (human primary monocytes [3]; 0.01 μM): 48; fMLP-triggered static adhesion to ICAM-1 (human primary monocytes [3]; 0.05 μM): 36; fMLP-triggered static adhesion to ICAM-1 (human primary monocytes [3]; 0.10 μM): 30
